Species on record: Rattus norvegicus
Assay: Open TG-GATES - Regimen: Daily Repeat
Type: toxicity, organism-based, Sprague-Dawley
Parameters: regimen Daily Repeat, gender Male, age 6 weeks
Settings: in vivo, po, 60 mg/kg, route gavage, dose level High; for APTT / Bas / Eos / Fbg / Hb / Ht / Lym / MCH / MCHC / MCV / Mono / Neu / PT / Plat / RBC / Ret / WBC: tissue Blood; for KIDNEY_L / KIDNEY_R / KIDNEY_TOTAL: tissue Kidney; for LIVER: tissue Liver; for A/G / ALP / ALT / AST / BUN / CRE / Ca / Cl / DBIL / GLC / IP / K / LDH / Na / PL / RALB / TBIL / TC / TG / TP / gamma-GTP: tissue Plasma

With `CC(C)NNC(=O)c1ccncc1` [IPRONIAZID] the TERMINAL_BW (72 h, time 3 day) was 184.6 g, the APTT (72 h, time 3 day) was 22.8 s and the Bas (72 h, time 3 day) was 0%. The Eos (72 h, time 3 day) was 0.8%, the Fbg (72 h, time 3 day) was 317.4 mg/dL and the Hb (72 h, time 3 day) was 13.1 g/dL. For the same molecule, the Ht (72 h, time 3 day) was 38.2%, the Lym (72 h, time 3 day) was 86.2% and the MCH (72 h, time 3 day) was 20.5 pg. The MCHC (72 h, time 3 day) was 34.4%, the MCV (72 h, time 3 day) was 59.6 fL and the Mono (72 h, time 3 day) was 1.6%. The Neu (72 h, time 3 day) was 10.8%, the PT (72 h, time 3 day) was 16.9 s and the Plat (72 h, time 3 day) was 145 x10_4/uL. For the same molecule, the RBC (72 h, time 3 day) was 640.8 x10_4/ul, the Ret (72 h, time 3 day) was 5.5% and the WBC (72 h, time 3 day) was 90.9 x10_2/uL. The KIDNEY_L (72 h, time 3 day) was 0.9 g, the KIDNEY_R (72 h, time 3 day) was 0.9 g and the KIDNEY_TOTAL (72 h, time 3 day) was 1.7 g. For the same molecule, the LIVER (72 h, time 3 day) was 8.1 g, the A/G (72 h, time 3 day) was 1.2 and the ALP (72 h, time 3 day) was 1455.4 IU/L. For the same molecule, the ALT (72 h, time 3 day) was 34 IU/L, the AST (72 h, time 3 day) was 78.2 IU/L and the BUN (72 h, time 3 day) was 20.4 mg/dL. It also gave a CRE (72 h, time 3 day) of 0.2 mg/dL, a Ca (72 h, time 3 day) of 10.2 mg/dL and a Cl (72 h, time 3 day) of 108.2 meq/L. The DBIL (72 h, time 3 day) was 0.002 mg/dL, the GLC (72 h, time 3 day) was 175.4 mg/dL and the IP (72 h, time 3 day) was 7.2 mg/dL. For the same molecule, the K (72 h, time 3 day) was 4.2 meq/L, the LDH (72 h, time 3 day) was 305.2 IU/L and the Na (72 h, time 3 day) was 143.4 meq/L. It also gave a PL (72 h, time 3 day) of 149.6 mg/dL, an RALB (72 h, time 3 day) of 3.2 g/dL and a TBIL (72 h, time 3 day) of 0.04 mg/dL. It also gave a TC (72 h, time 3 day) of 89.6 mg/dL, a TG (72 h, time 3 day) of 61.2 mg/dL and a TP (72 h, time 3 day) of 5.8 g/dL. For the same molecule, the gamma-GTP (72 h, time 3 day) was 1.2 IU/L, the TERMINAL_BW ([…], time 7 day) was 201.3 g and the TERMINAL_BW ([…], time 14 day) was 239 g. For the same molecule, the TERMINAL_BW ([…], time 28 day) was 299.7 g, the APTT ([…], time 7 day) was 21.6 s and the Bas ([…], time 7 day) was 0%. It also gave an Eos ([…], time 7 day) of 1%, a Fbg ([…], time 7 day) of 275.8 mg/dL and a Hb ([…], time 7 day) of 11.7 g/dL. The Ht ([…], time 7 day) was 33.9%, the Lym ([…], time 7 day) was 77.2% and the MCH ([…], time 7 day) was 20.4 pg. The MCHC ([…], time 7 day) was 34.4%, the MCV ([…], time 7 day) was 59.3 fL and the Mono ([…], time 7 day) was 2.2%. The Neu ([…], time 7 day) was 19%, the PT ([…], time 7 day) was 16.3 s and the Plat ([…], time 7 day) was 121.7 x10_4/uL. It also gave an RBC ([…], time 7 day) of 571.6 x10_4/ul, a Ret ([…], time 7 day) of 7.4% and a WBC ([…], time 7 day) of 126.5 x10_2/uL. The APTT ([…], time 14 day) was 21.3 s, the Bas ([…], time 14 day) was 0% and the Eos ([…], time 14 day) was 1%. For the same molecule, the Fbg ([…], time 14 day) was 302.2 mg/dL, the Hb ([…], time 14 day) was 11.4 g/dL and the Ht ([…], time 14 day) was 35.7%. For the same molecule, the Lym ([…], time 14 day) was 78%, the MCH ([…], time 14 day) was 22.2 pg and the MCHC ([…], time 14 day) was 31.8%. It also gave an MCV ([…], time 14 day) of 69.8 fL, a Mono ([…], time 14 day) of 2% and a Neu ([…], time 14 day) of 18.4%. For the same molecule, the PT ([…], time 14 day) was 16.5 s, the Plat ([…], time 14 day) was 115.4 x10_4/uL and the RBC ([…], time 14 day) was 511.4 x10_4/ul. It also gave a Ret ([…], time 14 day) of 19.5%, a WBC ([…], time 14 day) of 131.9 x10_2/uL and an APTT ([…], time 28 day) of 21.5 s. The Bas ([…], time 28 day) was 0%, the Eos ([…], time 28 day) was 0.8% and the Fbg ([…], time 28 day) was 352.8 mg/dL. The Hb ([…], time 28 day) was 11.9 g/dL, the Ht ([…], time 28 day) was 35% and the Lym ([…], time 28 day) was 77%. For the same molecule, the MCH ([…], time 28 day) was 21.6 pg, the MCHC ([…], time 28 day) was 33.9% and the MCV ([…], time 28 day) was 63.7 fL. It also gave a Mono ([…], time 28 day) of 2.2%, a Neu ([…], time 28 day) of 18.8% and a PT ([…], time 28 day) of 16.9 s. It also gave a Plat ([…], time 28 day) of 108.7 x10_4/uL, an RBC ([…], time 28 day) of 550.2 x10_4/ul and a Ret ([…], time 28 day) of 12.4%. For the same molecule, the WBC ([…], time 28 day) was 121.5 x10_2/uL, the KIDNEY_L ([…], time 7 day) was 1 g and the KIDNEY_R ([…], time 7 day) was 0.9 g. For the same molecule, the KIDNEY_TOTAL ([…], time 7 day) was 1.9 g, the KIDNEY_L ([…], time 14 day) was 1 g and the KIDNEY_R ([…], time 14 day) was 1 g. It also gave a KIDNEY_TOTAL ([…], time 14 day) of 2.1 g, a KIDNEY_L ([…], time 28 day) of 1.2 g and a KIDNEY_R ([…], time 28 day) of 1.2 g. The KIDNEY_TOTAL ([…], time 28 day) was 2.4 g, the LIVER ([…], time 7 day) was 8.5 g and the LIVER ([…], time 14 day) was 10.1 g. It also gave an LIVER ([…], time 28 day) of 11.8 g, an A/G ([…], time 7 day) of 1.2 and an ALP ([…], time 7 day) of 1212.6 IU/L. For the same molecule, the ALT ([…], time 7 day) was 34.4 IU/L, the AST ([…], time 7 day) was 82 IU/L and the BUN ([…], time 7 day) was 22.2 mg/dL. For the same molecule, the CRE ([…], time 7 day) was 0.2 mg/dL, the Ca ([…], time 7 day) was 10.1 mg/dL and the Cl ([…], time 7 day) was 108 meq/L. It also gave a DBIL ([…], time 7 day) of 0.024 mg/dL, a GLC ([…], time 7 day) of 180.6 mg/dL and an IP ([…], time 7 day) of 7 mg/dL. The K ([…], time 7 day) was 4 meq/L, the LDH ([…], time 7 day) was 241.4 IU/L and the Na ([…], time 7 day) was 142.8 meq/L. It also gave a PL ([…], time 7 day) of 151.6 mg/dL, an RALB ([…], time 7 day) of 3.1 g/dL and a TBIL ([…], time 7 day) of 0.086 mg/dL. For the same molecule, the TC ([…], time 7 day) was 85.8 mg/dL, the TG ([…], time 7 day) was 55.2 mg/dL and the TP ([…], time 7 day) was 5.6 g/dL. It also gave a gamma-GTP ([…], time 7 day) of 1.6 IU/L, an A/G ([…], time 14 day) of 1.2 and an ALP ([…], time 14 day) of 1104 IU/L. The ALT ([…], time 14 day) was 41 IU/L, the AST ([…], time 14 day) was 79 IU/L and the BUN ([…], time 14 day) was 19.6 mg/dL. For the same molecule, the CRE ([…], time 14 day) was 0.2 mg/dL, the Ca ([…], time 14 day) was 10 mg/dL and the Cl ([…], time 14 day) was 106.8 meq/L. The DBIL ([…], time 14 day) was 0.01 mg/dL, the GLC ([…], time 14 day) was 174 mg/dL and the IP ([…], time 14 day) was 7 mg/dL. The K ([…], time 14 day) was 4.1 meq/L, the LDH ([…], time 14 day) was 201.2 IU/L and the Na ([…], time 14 day) was 141.4 meq/L. It also gave a PL ([…], time 14 day) of 165.8 mg/dL, an RALB ([…], time 14 day) of 3 g/dL and a TBIL ([…], time 14 day) of 0.058 mg/dL. It also gave a TC ([…], time 14 day) of 92.4 mg/dL, a TG ([…], time 14 day) of 82.8 mg/dL and a TP ([…], time 14 day) of 5.6 g/dL. It also gave a gamma-GTP ([…], time 14 day) of 1.8 IU/L, an A/G ([…], time 28 day) of 1.1 and an ALP ([…], time 28 day) of 1056.8 IU/L. The ALT ([…], time 28 day) was 25 IU/L, the AST ([…], time 28 day) was 66.8 IU/L and the BUN ([…], time 28 day) was 18.6 mg/dL. For the same molecule, the CRE ([…], time 28 day) was 0.2 mg/dL, the Ca ([…], time 28 day) was 10.2 mg/dL and the Cl ([…], time 28 day) was 105.8 meq/L. It also gave a DBIL ([…], time 28 day) of 0.004 mg/dL, a GLC ([…], time 28 day) of 182 mg/dL and an IP ([…], time 28 day) of 6.6 mg/dL. It also gave a K ([…], time 28 day) of 4.1 meq/L, an LDH ([…], time 28 day) of 156.6 IU/L and a Na ([…], time 28 day) of 141.8 meq/L. For the same molecule, the PL ([…], time 28 day) was 149.6 mg/dL, the RALB ([…], time 28 day) was 3.1 g/dL and the TBIL ([…], time 28 day) was 0.09 mg/dL. For the same molecule, the TC ([…], time 28 day) was 87 mg/dL, the TG ([…], time 28 day) was 76.6 mg/dL and the TP ([…], time 28 day) was 6 g/dL. For the same molecule, the gamma-GTP ([…], time 28 day) was 2.4 IU/L.
